From patent US20100249071A1, “Modulators of S1P and Methods of Making And Using” (Exelixis, Inc., priority 2009, published 2010)
Read-outs that look alike come from different tables or passages of the source.

Tests used:
[1] = biological target: T1, hS1P1R (hEdg1) membrane protein (Homo sapiens, UniProt P21453); experiment: hS1P1R GTPγS binding assay (Assay 3a); assay type: biochemical
T1 construct: purchased Lonza
Protocol: Assay 3a: The hS1P1R GTPγS binding assay was carried out at room temperature in 96 well non-binding surface assay plates. The reaction in each well contained 4 μg hS1P1R (hEdg1) membrane protein (Lonza), 30 μM GDP, 0.1 nM [^35S]GTPγS, 0.25% fatty acid free BSA, and serially diluted hS1P1R agonist compound in 200 μL assay buffer (25 mM Tris-HCl PH 7.9, 100 mM NaCl, 3 mM MgCl2, and 0.2 mM EGTA). After one hour of incubation, 0.9 mg of WGA (Wheat Germ Agglutinin) SPA beads in 50 μL of assay buffer was added to each well. The SPA beads were spun down after an additional one hour incubation. The radioactivity of the bound GTPγS was counted by reading the assay plate using a MicroBeta.

S1P3 = biological target: T2, S1P3 (Homo sapiens, UniProt Q99500); experiment: S1P3 Tango β-arrestin recruitment assay in HEK293 cells (Assay 5); assay type: cell-based; conditions: read-out: Assay 5 EC50
T2 construct: host or cells: HEK293 (transient transfection)
From the text: (§1) For the Tango™ β-arrestin recruitment assay, the cytoplasmic C-terminus of S1P1 was tethered to the tTA transcriptional activator with a linker that contains a cleavage site for the N1a protease from tobacco etch virus (TEV protease). The C-terminus of the human β-arrestin2 protein was fused to TEV protease. Binding of an agonist recruits the βl -arrestin-TEV fusion protein to the receptor resulting in cleavage of the linker and released of tTA to enter the nucleus and subsequently activated a tTA-dependent luciferase reporter gene.
Assay 2a: Frozen HEK293 cells transiently transfected with receptor cDNAs for S1P1 (Invitrogen) are thawed and suspended in 10 mL of Pro293a-CDM culture medium (Invitrogen) supplemented with 4 mM L-Glutamine (Invitrogen), 1× Pen/Strep (100 units/mL penicillin and 100 μg/mL streptomycin, Invitrogen) and 0.1% fatty acid free BSA (Sigma-Aldrich). Cells are added to the wells of a 384-well white opaque bottom assay plate (PerkinElmer) at 3,000-6,000 cells per well and the plate is incubated for approximately 4 h in a 37° C. incubator. Test compounds are tested at maximum concentrations of 10 μM for the agonist assays. Compounds are diluted in DMSO (10 concentration points, 3-fold each) and added to the assay plate at a 1% final DMSO concentration. For each compound, there are duplicate assay plates and each assay plate has duplicate wells per concentration point. The plate is incubated at 37° C. for 30 min. The efficacy control is 5 μM S1P (Avanti). Following agonist addition, the assay plates are incubated in a 37° C. incubator for 16-18 h. Luciferase assay reagent is added and luminescence measured in an EnVision plate reader (PerkinElmer). To determine agonist activity, percent activity is calculated as [(test compound−background)/(positive control−background)*100], where background is the luminescence of the DMSO alone control and the positive control is the luminescence from cells incubated with the efficacy control 5 μM S1P. The percent activities are plotted against compound concentration to determine EC50 using XLFit (IDBS).
This assay was conducted using the procedures described in Assay 2a, replacing S1P1 with S1P3.

S1P1 = biological target: T3, S1P1 (Homo sapiens, UniProt P21453); experiment: Tango β-arrestin recruitment assay in U2OS cells (Assay 2b); assay type: cell-based
T3 construct: host or cells: U2OS
From the text: as §1
Assay 2b: Alternatively, U2OS cells expressing the reporter gene and S1P1 (Invitrogen) were added to the wells of a 384-well white opaque bottom assay plate (PerkinElmer) at […]. The cells were serum starved for 48 h in Freestyle medium (Invitrogen). Test compounds were tested at maximum concentrations of 1 μM for the agonist assay. Compounds were diluted in DMSO (10 concentration points, 3-fold each) and added to the assay plate at a 1% final DMSO concentration. The efficacy control was 1 μM S1P (Avanti). For each compound, there were duplicate assay plates and each assay plate had duplicate wells per concentration point. The plate was incubated overnight at 37° C. The GeneBLAzer β-lactamase assay reagent (Invitrogen) was added and the plates were incubated for an additional 2 h at room temperature. Fluorescence was measured using an EnVision plate reader (PerkinElmer, Waltham, Mass.) at an excitation wavelength of 409 nm and emission wavelengths of 460 nm and 530 nm. The emission intensity at each wavelength was background subtracted against wells containing medium only and the F460 nm/F530 nm ratio determined for each concentration of the test compounds. Percent activity was calculated as [(test compound ratio−DMSO ratio)/(positive control ratio−DMSO ratio)*100], where the positive control and DMSO ratios are from cells incubated with the efficacy control 1 μM S1P and 1% DMSO, respectively. The percent activities were plotted against compound concentration to determine EC50 using XLFit (IDBS).

[2] = biological target: T4, hS1PR5 (hEdg8) membrane protein (Homo sapiens, UniProt Q9H228); experiment: hS1P5R GTPγS binding assay (Assay 4); assay type: biochemical
T4 construct: expressed in transfected cells; host or cells: CHO
Protocol: The hS1PR5 GTPγS binding assay was carried out at room temperature in 96-well non-binding surface assay plates. The reaction in each well contained 5 μg hS1PR5 (hEdg8) membrane protein from CHO cells expressing hS1PR5, 30 μM GDP, 0.1 nM [^35S]GTPγS, 0.25% fatty acid free BSA, and serially-diluted Compound of the Invention in 200 μL assay buffer (25 mM Tris-HCl PH 7.9, 100 mM NaCl, 3 mM MgCl2, and 0.2 mM EGTA). After one hour of incubation, 0.9 mg of WGA (Wheat Germ Agglutinin) SPA beads in 50 μL of assay buffer was added to each well. The SPA beads were spun down after an additional one hour incubation. The radioactivity of the bound GTPγS was counted by reading the assay plate using a MicroBeta.

T1 sequence (P21453 whole entry): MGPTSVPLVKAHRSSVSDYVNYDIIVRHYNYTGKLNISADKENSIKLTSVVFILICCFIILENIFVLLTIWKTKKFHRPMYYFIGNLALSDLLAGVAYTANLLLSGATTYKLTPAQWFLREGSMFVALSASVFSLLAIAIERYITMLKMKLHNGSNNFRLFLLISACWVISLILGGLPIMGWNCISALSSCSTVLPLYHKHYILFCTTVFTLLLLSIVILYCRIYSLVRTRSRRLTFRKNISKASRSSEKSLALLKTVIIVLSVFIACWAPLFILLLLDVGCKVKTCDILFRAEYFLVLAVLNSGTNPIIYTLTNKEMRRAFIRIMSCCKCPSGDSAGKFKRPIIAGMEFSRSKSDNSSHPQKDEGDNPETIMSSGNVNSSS
T3 sequence (P32121 whole entry): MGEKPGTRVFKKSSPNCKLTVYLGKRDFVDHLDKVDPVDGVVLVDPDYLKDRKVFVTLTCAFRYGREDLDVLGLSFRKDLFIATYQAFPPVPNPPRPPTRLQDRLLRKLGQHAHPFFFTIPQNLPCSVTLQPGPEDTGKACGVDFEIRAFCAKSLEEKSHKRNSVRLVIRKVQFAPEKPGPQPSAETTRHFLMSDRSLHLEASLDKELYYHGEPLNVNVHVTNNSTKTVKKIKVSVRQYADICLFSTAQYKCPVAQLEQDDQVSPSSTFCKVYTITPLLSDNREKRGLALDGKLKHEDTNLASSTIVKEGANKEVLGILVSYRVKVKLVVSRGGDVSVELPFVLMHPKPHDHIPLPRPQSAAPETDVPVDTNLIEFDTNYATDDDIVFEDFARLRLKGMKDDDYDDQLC
T3 sequence (P21453 whole entry): as the sequence (P21453 whole entry) above
T2 sequence (P32121 whole entry): as the sequence (P32121 whole entry) above
T2 sequence (Q99500 whole entry): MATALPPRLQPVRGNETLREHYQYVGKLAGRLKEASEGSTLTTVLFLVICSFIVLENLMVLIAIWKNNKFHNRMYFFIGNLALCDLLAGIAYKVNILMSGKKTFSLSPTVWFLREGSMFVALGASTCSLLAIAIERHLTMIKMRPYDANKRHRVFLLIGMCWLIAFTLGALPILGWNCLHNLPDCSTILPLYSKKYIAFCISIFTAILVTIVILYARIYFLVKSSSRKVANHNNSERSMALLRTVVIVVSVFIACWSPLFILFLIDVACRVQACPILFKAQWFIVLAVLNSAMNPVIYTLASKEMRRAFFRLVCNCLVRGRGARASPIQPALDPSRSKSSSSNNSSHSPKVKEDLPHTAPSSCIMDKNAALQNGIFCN
T4 sequence (Q9H228 whole entry): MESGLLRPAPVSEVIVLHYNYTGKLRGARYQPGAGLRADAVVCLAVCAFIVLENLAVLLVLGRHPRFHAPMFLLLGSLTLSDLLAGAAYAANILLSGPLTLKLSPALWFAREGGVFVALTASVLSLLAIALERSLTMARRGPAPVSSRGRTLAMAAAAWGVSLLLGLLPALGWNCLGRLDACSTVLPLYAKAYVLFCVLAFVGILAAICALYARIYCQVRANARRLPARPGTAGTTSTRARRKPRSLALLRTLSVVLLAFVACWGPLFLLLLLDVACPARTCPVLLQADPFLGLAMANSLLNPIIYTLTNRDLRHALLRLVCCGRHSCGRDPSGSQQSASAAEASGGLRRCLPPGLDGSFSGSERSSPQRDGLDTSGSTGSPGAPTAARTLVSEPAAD

Molecule | EC50 [1] | EC50 (S1P3) | EC50 (S1P1; read-out: Assay 2b EC50) | EC50 [2] | EC50 (S1P1; * = rEC50 measured rather than EC50, read-out: Assay 2b rEC50 (relative EC50, cells marked *))
N[C@H](CO)COc1cc(Cl)c(-c2nnc(-c3cc(Cl)cc(Cl)c3)s2)cc1F [Entry 92, (2R)-2-amino-3-({5-chloro-4-[5-(3,5-dichlorophenyl)-1,3,4-thiadiazol-2-yl]-2-fluorophenyl}oxy)propan-1-ol] | 250 to 2800 nM | > 10000 nM | 250 to 2800 nM |  | 
N[C@H](CO)COc1cc(Cl)c(-c2nnc(-c3cc(Br)cc(Br)c3)s2)cc1F [Entry 30, (2R)-2-amino-3-({5-chloro-4-[5-(3,5-dibromophenyl)-1,3,4-thiadiazol-2-yl]-2-fluorophenyl}oxy)propan-1-ol] | 250 to 2800 nM |  | 250 to 2800 nM | 2800 to 10000 nM | 
CC(C)Oc1cc(Br)cc(-c2nnc(-c3cc(F)c(OC[C@H](N)CO)cc3Cl)s2)c1 [Entry 27, (2R)-2-amino-3-{[4-(5-{3-bromo-5-[(1-methylethyl)oxy]phenyl}-1,3,4-thiadiazol-2-yl)-5-chloro-2-fluorophenyl]oxy}propan-1-ol] | 50 to 250 nM |  | 250 to 2800 nM |  | 
CCCOc1ccc(-c2nnc(-c3cc(F)c(OC[C@H](N)CO)cc3Cl)s2)cc1 [Entry 91, (2R)-2-amino-3-[(5-chloro-2-fluoro-4-{5-[4-(propyloxy)phenyl]-1,3,4-thiadiaozl-2-yl}phenyl)oxy]propan-1-ol] | 50 to 250 nM |  | 250 to 2800 nM | 250 to 2800 nM | 
Cc1cc(-c2nnc(-c3cc(F)c(OC[C@H](N)[C@H](C)O)cc3Cl)s2)cnc1NC(C)C [Entry 66, (2S,3S)-3-amino-4-{[5-chloro-2-fluoro-4-(5-{5-methyl-6-[(1-methylethyl)amino]pyridin-3-yl}-1,3,4-thiadiazol-2-yl)phenyl]oxy}butan-2-ol] |  |  |  |  | 250 to 2800 nM
CC(C)Oc1c(Cl)cc(-c2nnc(-c3cc(F)c(OC[C@H](N)CO)cc3Cl)s2)cc1Cl [Entry 26, (2R)-2-amino-3-{[5-chloro-4-(5-{3,5-dichloro-4-[(1-methylethyl)oxy]phenyl}-1,3,4-thiadiazol-2-yl)-2-fluorophenyl]oxy}propan-1-ol] | 50 to 250 nM |  | 250 to 2800 nM | 250 to 2800 nM | 
N[C@H](CO)COc1cc(Cl)c(-c2nnc(-c3ccc(OC(F)(F)F)c(Cl)c3)s2)cc1F [Entry 8, (2R)-2-amino-3-{[5-chloro-4-(5-{3-chloro-4-[(trifluoromethyl)oxy]phenyl}-1,3,4-thiadiazol-2-yl)-2-fluorophenyl]oxy}propan-1-ol] | 50 to 250 nM |  | 250 to 2800 nM |  | 
N[C@H](CO)COc1cc(Cl)c(-c2nnc(-c3cc(Cl)cc(Br)c3)s2)cc1F [Entry 23, (2R)-2-amino-3-({4-[5-(3-bromo-5-chlorophenyl)-1,3,4-thiadiazol-2-yl]-5-chloro-2-fluorophenyl}oxy)propan-1-ol] | 250 to 2800 nM |  | 250 to 2800 nM | 250 to 2800 nM | 
N[C@H](CO)COc1cc(Cl)c(-c2nnc(-c3ccc(OC(F)(F)F)cc3)s2)cc1F [Entry 7, (2R)-2-amino-3-{[5-chloro-2-fluoro-4-(5-{4-[(trifluoromethyl)oxy]phenyl}-1,3,4-thiadiazol-2-yl)phenyl]oxy}propan-1-ol] | 50 to 250 nM |  | 250 to 2800 nM |  | 
CC(C)Nc1cc(-c2nnc(-c3cc(F)c(OC[C@H](N)[C@H](C)O)cc3Cl)s2)ccn1 [Entry 58, (2S,3S)-3-amino-4-{[5-chloro-2-fluoro-4-(5-{2-[(1-methylethyl)amino]pyridin-4-yl}-1,3,4-thiadiazol-2-yl)phenyl]oxy}butan-2-ol] | 50 to 250 nM |  | 250 to 2800 nM | 250 to 2800 nM | 

Results, then the molecule that gave them:

EC50 [1] | EC50 (S1P3) | EC50 (S1P1; read-out: Assay 2b EC50) | EC50 [2] | EC50 (S1P1; * = rEC50 measured rather than EC50, read-out: Assay 2b rEC50 (relative EC50, cells marked *)) | Molecule
250 to 2800 nM | ≤ 250 nM | ≤ 10 nM |  |  | CC(C)N(C)c1ccc(-c2nnc(-c3cc(F)c(OCC(N)CO)cc3Cl)s2)cn1 (stereo not shown) [Entry 36, 2-amino-3-{[5-chloro-2-fluoro-4-(5-{6-[methyl(1-methylethyl)amino]pyridin-3-yl}-1,3,4-thiadiazol-2-yl)phenyl]oxy}propan-1-ol]
50 to 250 nM | ≤ 250 nM | ≤ 10 nM |  |  | CC(C)N(C)c1cc(-c2nnc(-c3cc(F)c(OC[C@@H](N)CO)cc3Cl)s2)cc(Cl)n1 [Entry 31, (2S)-2-amino-3-{[5-chloro-4-(5-{2-chloro-6-[methyl(1-methylethyl)amino]pyridin-4-yl}-1,3,4-thiadiazol-2-yl)-2-fluorophenyl]oxy}propan-1-ol]
 |  | 250 to 2800 nM |  |  | N[C@H](CO)COc1cc(Cl)c(-c2nnc(-c3cc(-c4ccccc4)c(C(F)(F)F)s3)s2)cc1F [Entry 84, (2R)-2-amino-3-[(5-chloro-2-fluoro-4-{5-[4-phenyl-5-(trifluoromethyl)-2-thienyl]-1,3,4-thiadiazol-2-yl}phenyl)oxy]propan-1-ol]
≤ 10 nM |  | ≤ 10 nM | 10 to 50 nM |  | (1R,2R)-2-amino-3-{[5-chloro-2-fluoro- 4-(5-{2-methyl-6-[(1- methylethyl)amino]pyridin-4-yl}-1,3,4- thiadiazol-2-yl)phenyl]oxy}-1- methylpropyl dihydrogen phosphate [Entry 100]
> 10000 nM |  | 50 to 250 nM |  |  | NC(CO)COc1cc(Cl)c(-c2nnc(-c3cn4ccsc4n3)s2)cc1F (stereo not shown) [Entry 4, 2-amino-3-{[5-chloro-2-fluoro-4-(5-imidazo[2,1-b][1,3]thiazol-6-yl-1,3,4-thiadiazol-2-yl)phenyl]oxy}propan-1-ol]
50 to 250 nM | > 10000 nM | 50 to 250 nM |  |  | N[C@H](CO)COc1cc(Cl)c(-c2nnc(-c3cc(Br)cc(OC(F)(F)F)c3)s2)cc1F [Entry 28, (2R)-2-amino-3-{[4-(5-{3-bromo-5-[(trifluoromethyl)oxy]phenyl}-1,3,4-thiadiazol-2-yl)-5-chloro-2-fluorophenyl]oxy}propan-1-ol]
10 to 50 nM |  | 50 to 250 nM | 50 to 250 nM |  | CC(C)Oc1ccc(-c2nnc(-c3cc(F)c(OC[C@H](N)CO)cc3Cl)s2)cc1F [Entry 42, (2R)-2-amino-3-{[5-chloro-2-fluoro-4-(5-{3-fluoro-4-[(1-methylethyl)oxy]phenyl}-1,3,4-thiadiazol-2-yl)phenyl]oxy}propan-1-ol]
10 to 50 nM | ≤ 250 nM | ≤ 10 nM |  |  | CC(C)Oc1ccc(-c2nnc(-c3cc(F)c(OCC(N)CO)cc3Cl)s2)nc1Cl (stereo not shown) [Entry 14, 2-amino-3-{[5-chloro-4-(5-{6-chloro-5-[(1-methylethyl)oxy]pyridin-2-yl}-1,3,4-thiadiazol-2-yl)-2-fluorophenyl]oxy}propan-1-ol]
